Assay results from PubChem BioAssay AID2060509 (Molecular Pharmacology Branch, DTP, NCI, 2025).
“And” between values parts separate entries of the source, which are not always exact repeats. Equal values may be shown once.

Test system: 485176-168-R4-J1-PDC spheroids with HUVEC/MSC, viability
Assay: Anticancer human tumor 485176-168-R4-J1-PDC patient-derived pancreatic adenocarcinoma cell line growth inhibition [GQUAD]
Settings: for viability, T/C: stronger effect = lower value
Source text: DNA G-quadruplex Stabilizer Agents in Combinations in Complex Spheroids
A high-throughput screen of multi-cell type tumor spheroids was designed to identify active combinations of DNA G-quadruplex stabilizer agents and targeted small molecules. Complex spheroids include a stromal component modeled by human endothelial cells (HUVEC) and fibroblasts modeled by human mesenchymal stem cells (MSCs). The concentration ranges selected for each drug and investigational agent were based upon clinically achievable concentrations if the clinical Cmax of the agent was known.
Compounds. The drugs and investigational agents: pidnarulex (CX-5461; NSC782164), APTO-253 (NSC789042), BRACO-19 (NSC847499), peposertib (NSC802822), ceralasertib (NSC780249), elimusertib (NSC800525), camonsertib (NSC841442), AZD-1390 (NSC803789), olaparib (NSC753686), talazoparib (NSC767125), ART-558 (NSC835418), sotorasib (NSC818433), MRTX-1133 (NSC836407), SN-38 (NSC673596), topotecan (NSC609699), etoposide (NSC141540), doxorubicin (NSC123127), gemcitabine (NSC613327), 5-fluorouracil (NSC19893), paclitaxel (NSC125973), vemurafenib (NSC761431), panobinostat (NSC761190), R-306465 (JNJ-16241199; NSC773264), adavosertib (NSC754352), TP-3654 (NSC805149), carboplatin (NSC241240), KSQ-4279 (NSC840948), and staurosporine (NSC755774) were obtained from the National Cancer Institute (NCI) Developmental Therapeutics Program Chemical Repository (34). The FDA-approved anticancer drug set is available from the NCI Developmental Therapeutics Program. […] The stock solutions were prepared in dimethyl sulfoxide (DMSO, Sigma-Aldrich, St. Louis, MO, cat. D2650) at 800-fold the tested concentration and stored at -70 degrees C prior to their use. All drugs and investigational agents were tested over a range starting from a high concentration at or near the clinical Cmax and decreasing in half-log increments. If the clinical Cmax for an agent had not been determined, the highest concentration tested was 10 microM.
2.3 Cell Culture. All cells were maintained in an incubator at 37 degrees C and 5% CO2 with 95% humidity. The PDC lines were cultured according to standard operating procedures established by the NCI PDMR. All PDCs were thawed and cultured in Matrigel-coated flasks prepared with a working solution of 1X Ham's F-12 nutrient mix, without supplementation (Invitrogen, cat. 11765054), 100 U/mL penicillin-streptomycin (Invitrogen, cat. 15140122), and 2.5% Matrigel (Corning Inc., cat. 354248) for the first three passages. The 857933-349-R-J2-PDC line was cultured in 6C/Colon 1B media, which includes advanced DMEM/F-12 (Thermo Fisher Scientific, cat. 12634028), 10 mM HEPES (Thermo Fisher Scientific, cat. 15630080), 1X GlutaMAX supplement (Thermo Fisher Scientific, cat. 35050061), 0.1 mg/mL primocin (InvivoGen, cat. ant-pm-2), 10% defined fetal bovine serum, heat inactivated (HyClone Laboratories Inc., cat. SH30070.03HI), 50% L-WRN conditioned media (ATCC, cat. CRL-3276), 1.25 mM N-Acetyl-L-cysteine (Sigma-Aldrich, cat. A9165), 10 mM nicotinamide (Sigma-Aldrich, cat. N0636), 1X B-27 supplement (Thermo Fisher Scientific, cat. 17504044), 1X N-2 supplement (Thermo Fisher Scientific, cat. 17502048), 10 microM Y-27632 dihydrochloride (Tocris Bioscience, cat. 1254), and 50 ng/mL human EGF recombinant protein (Thermo Fisher Scientific, cat. PHG0311). The 485176-168-R4-J1-PDC line was cultured in Panc media, which includes all 6C/Colon 1B media components plus 100 ng/mL human FGF-10 (Thermo Fisher Scientific, cat. 100-26), 500 nM SB-431542 (Selleckchem, cat. S1067), and gastrin (Tocris, cat. 3006).
[…]

[1] = compound alone, run of 03/18/2024
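Also: spheroids exposed to compounds for seven days before readout.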
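For viability, T/C in this document: percent viability relative to DMSO vehicle control wells as 100%.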

`COc1cc(C2c3cc4c(cc3C(OC3OC5COC(C)OC5C(O)C3O)C3COC(=O)C23)OCO4)cc(OC)c1O` (stereo not given) was tested, and the viability, T/C (compound 0.0316 µM) was 102% and 101% and 95%, the viability, T/C (compound 0.1 µM) was 80.2% and 68.8% and 67.7% and the viability, T/C (compound 0.316 µM) was 46.6% and 39.1% and 39.6%. For the same compound, the viability, T/C (compound 1 µM) was 39.9% and 38.8% and 40.8%, the viability, T/C (compound 3.16 µM) was 25.9% and 24.6% and 23.1% and the viability, T/C (compound 10 µM) was 13.2% and 13.4% and 11%. For the same compound, the IC50 (curve of compound) was 406 nM and 255 nM and 269 nM.

`COc1ccc([C@@H](O)c2cc(-c3ncnc4cc(N5CCOCC5)ccc34)c(F)cc2Cl)nn1` was tested, and the viability, T/C (compound 0.0316 µM) was 89.1% and 113% and 89.2%, the viability, T/C (compound 0.1 µM) was 75.3% and 88.3% and 77.7% and the viability, T/C (compound 0.316 µM) was 87.5% and 97.3% and 96%. The viability, T/C (compound 1 µM) was 73.4% and 71.1% and 64.4%, the viability, T/C (compound 3.16 µM) was 46.6% and 64.8% and 57.1% and the viability, T/C (compound 10 µM) was 31.4% and 30% and 28.4%. The IC50 (curve of compound) was 2720 nM and 4600 nM and 3810 nM.

`COc1cccc2c1C(=O)c1c(O)c3c(c(O)c1C2=O)CC(O)(C(=O)CO)CC3OC1CC(N)C(O)C(C)O1` (stereo not given) was tested, and the viability, T/C (compound 0.0316 µM) was 94.5% and 91.5% and 81.9%, the viability, T/C (compound 0.1 µM) was 59.7% and 68.6% and 56.4% and the viability, T/C (compound 0.316 µM) was 51.7% and 52.9% and 48.3%. For the same compound, the viability, T/C (compound 1 µM) was 16% and 16.9% and 15.1%, the viability, T/C (compound 3.16 µM) was 4.15% and 1.93% and 4.74% and the viability, T/C (compound 10 µM) was 0.3% and 0.31% and 0.43%. For the same compound, the IC50 (curve of compound) was 215 nM and 283 nM and 193 nM.

For `COc1ncnc(C2CC2)c1-c1ncc2cnn(Cc3ccc(-c4nc(C(F)(F)F)cn4C(C)C)cc3)c2n1`, the viability, T/C (compound 0.0316 µM) was 95.3% and 93.3% and 91.2%, the viability, T/C (compound 0.1 µM) was 96.5% and 107% and 90.4% and the viability, T/C (compound 0.316 µM) was 104% and 96.2% and 105%. The viability, T/C (compound 1 µM) was 84.1% and 92.2% and 106%, the viability, T/C (compound 3.16 µM) was 102% and 107% and 93.4% and the viability, T/C (compound 10 µM) was 103% and 106% and 98.5%. It also gave an IC50 (curve of compound) greater than 10000 nM.

`Cc1[nH]c2ccc(F)cc2c1-c1nc2c3cccnc3c3ncccc3c2[nH]1` was tested, and the viability, T/C (compound 0.1 µM) was 101% [middle of 12 runs], the viability, T/C (compound 0.316 µM) was 97.9% [middle of 12 runs] and the viability, T/C (compound 1 µM) was 99.5% [middle of 12 runs]. For the same compound, the viability, T/C (compound 10 µM) was 78.8% [middle of 12 runs], the IC50 [1] was greater than 10000 nM and the IC50 (compound alone, run of 03/26/2024) was greater than 10000 nM.

`Cc1[nH]c2ccccc2c1CCNCc1ccc(/C=C/C(=O)NO)cc1` was tested, and the viability, T/C (compound 0.000999 µM) was 113% and 108% and 97.3%, the viability, T/C (compound 0.00316 µM) was 115% and 82.3% and 88% and the viability, T/C (compound 0.00999 µM) was 94.8% and 93.9% and 87%. For the same compound, the viability, T/C (compound 0.0316 µM) was 81.7% and 86% and 77.5%, the viability, T/C (compound 0.0999 µM) was 89.2% and 50.2% and 66% and the viability, T/C (compound 0.316 µM) was 14.2% and 10.4% and 16.8%. For the same compound, the IC50 (curve of compound) was 168 nM and 102 nM and 138 nM.

For `Cc1cccc(N(C)C(=O)C2C(O)CCN2c2nc(C)cc(C(F)(F)F)c2C#N)c1` (stereo not given), the viability, T/C (compound 0.0316 µM) was 103% and 99% and 105%, the viability, T/C (compound 0.1 µM) was 85.8% and 79.2% and 87.1% and the viability, T/C (compound 0.316 µM) was 84.3% and 101% and 97.6%. For the same compound, the viability, T/C (compound 1 µM) was 85.8% and 105% and 76.4%, the viability, T/C (compound 3.16 µM) was 97.7% and 103% and 97.5% and the viability, T/C (compound 10 µM) was 95.4% and 91.5% and 89.9%. It also gave an IC50 (curve of compound) greater than 10000 nM.

`Cc1cnc(CNC(=O)c2c(=O)c3ccc(N4CCCN(C)CC4)nc3n3c2sc2ccccc23)cn1` was tested, and the viability, T/C (compound 0.0316 µM) was 90.3% [middle of 12 runs], the viability, T/C (compound 0.1 µM) was 78.8% [middle of 12 runs] and the viability, T/C (compound 0.316 µM) was 64.4% [middle of 12 runs]. The viability, T/C (compound 1 µM) was 55% [middle of 12 runs], the viability, T/C (compound 3.16 µM) was 39.6% [middle of 12 runs] and the viability, T/C (compound 10 µM) was 36.6% [middle of 12 runs]. For the same compound, the IC50 [1] was 1.17 µM [middle of 10 runs].

For `Cn1ncnc1[C@H]1c2n[nH]c(=O)c3cc(F)cc(c23)N[C@@H]1c1ccc(F)cc1`, the viability, T/C (compound 0.000999 µM) was 99.2% (2×) and 86.5%, the viability, T/C (compound 0.00316 µM) was 95.2% and 94% and 85.8% and the viability, T/C (compound 0.00999 µM) was 96.4% and 108% and 91.5%. For the same compound, the viability, T/C (compound 0.0316 µM) was 98.8% and 101% and 88.8%, the viability, T/C (compound 0.0999 µM) was 91.2% and 91.7% and 89.7% and the viability, T/C (compound 0.316 µM) was 75.9% and 98.5% and 85.9%. For the same compound, the IC50 (curve of compound) was greater than 316 nM.

With `Nc1ccn(C2OC(CO)C(O)C2(F)F)c(=O)n1` (stereo not given) the viability, T/C (compound 0.0316 µM) was 76.8% and 70.1% and 75.6%, the viability, T/C (compound 0.1 µM) was 16.7% and 16.1% and 15.4% and the viability, T/C (compound 0.316 µM) was 11.3% and 7.32% and 9.64%. For the same compound, the viability, T/C (compound 1 µM) was 10.3% and 9.3% and 8.42%, the viability, T/C (compound 3.16 µM) was 10.7% and 12.2% and 11.5% and the viability, T/C (compound 10 µM) was 13% and 12.5% and 11.1%. For the same compound, the IC50 (curve of compound) was 52.9 nM and 48.4 nM and 51.6 nM.

In the case of `O=C(NO)c1cnc(N2CCN(S(=O)(=O)c3ccc4ccccc4c3)CC2)nc1`, the viability, T/C (compound 0.0316 µM) is reported as 83.4% and 107% and 97.9%, the viability, T/C (compound 0.1 µM) is reported as 99.5% and 73.2% and 76.1% and the viability, T/C (compound 0.316 µM) is reported as 67.6% and 78.2% and 61.2%. For the same compound, the viability, T/C (compound 1 µM) was 7.2% and 12.1% and 11%, the viability, T/C (compound 3.16 µM) was 0.3% and 0.31% and 0.2% and the viability, T/C (compound 10 µM) was 0.3% and 0.31% and 0.29%. For the same compound, the IC50 (curve of compound) was 443 nM and 512 nM and 378 nM.

With `O=C(c1cc(Cc2n[nH]c(=O)c3ccccc23)ccc1F)N1CCN(C(=O)C2CC2)CC1` the viability, T/C (compound 0.0316 µM) was 94.9% and 101% and 98%, the viability, T/C (compound 0.1 µM) was 100% and 97.5% and 90.3% and the viability, T/C (compound 0.316 µM) was 84.3% and 99.6% and 85.8%. For the same compound, the viability, T/C (compound 1 µM) was 89.3% and 98.4% and 81.9%, the viability, T/C (compound 3.16 µM) was 85.7% and 102% and 88.1% and the viability, T/C (compound 10 µM) was 80% and 77.6% and 68.8%. It also gave an IC50 (curve of compound) greater than 10000 nM.

With `O=c1[nH]cc(F)c(=O)[nH]1` the viability, T/C (compound 0.0316 µM) was 95.9% and 97.3% and 84.9%, the viability, T/C (compound 0.1 µM) was 85.5% and 91% and 89.7% and the viability, T/C (compound 0.316 µM) was 79.7% and 75.4% and 64%. The viability, T/C (compound 1 µM) was 56.6% and 60.5% and 59.2%, the viability, T/C (compound 3.16 µM) was 48.2% and 46.2% and 45.4% and the viability, T/C (compound 10 µM) was 46.8% and 46.7% and 54.9%. The IC50 (curve of compound) was 2610 nM and 2750 nM and > 10000 nM.
